From patent publication US10800784B2, “Nitrogen-containing heterocyclic amide compound and pharmaceutical use thereof” (Japan Tobacco Inc., priority 2018, dated 2020)

Key:
human PDHK1 (hPDHK1) = human PDHK1 (hPDHK1) (Homo sapiens (Human), UniProt Q15118); assay: Inhibitory action of PDHK1 activity in vitro (residual PDH activity after PDHK reaction); format: biochemical; settings: for IC50: PDH/hPDHK1 complex solution, PDHK reaction at room temperature for 45 min, NADH absorbance at 340 nm, read-out: hPDK1 IC50; for inhibition at 0.003 µM: at 3 nmol/L, shown when IC50 value could not be calculated, read-out: hPDHK1 inhibitory rate at the lowest concentration of the test compound
human PDHK1 (hPDHK1), sequence (Q15118 29-436): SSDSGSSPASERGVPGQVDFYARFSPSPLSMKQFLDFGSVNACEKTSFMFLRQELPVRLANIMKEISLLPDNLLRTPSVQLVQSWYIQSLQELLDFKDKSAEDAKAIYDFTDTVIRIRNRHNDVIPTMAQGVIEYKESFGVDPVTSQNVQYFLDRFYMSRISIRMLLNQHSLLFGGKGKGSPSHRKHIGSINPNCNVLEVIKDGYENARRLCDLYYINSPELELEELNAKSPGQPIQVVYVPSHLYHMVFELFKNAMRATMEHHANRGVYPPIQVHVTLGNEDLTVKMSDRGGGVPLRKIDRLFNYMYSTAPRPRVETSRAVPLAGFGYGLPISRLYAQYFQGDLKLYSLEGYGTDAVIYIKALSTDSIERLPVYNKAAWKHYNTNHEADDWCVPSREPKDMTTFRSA
Procedure: (§1) The inhibitory action of PDHK activity was assessed indirectly by measuring the residual PDH activity after PDHK reaction in the presence of a test compound.
(Inhibitory Action of PDHK1 Activity)
In the case of human PDHK1 (hPDHK1, NCBI Reference Database Accession number NM_002610.3), a 1.3 kbp fragment encoding this protein was isolated from human liver cDNA by polymerase chain reaction (PCR). Modified hPDHK1 cDNA wherein FLAG-Tag sequence was added to the N terminus was prepared by PCR and ligated to the NdeI/EcoRI site of pET-17b vector (Merck MGaA, model number 69663-3). The recombinant construct was transformed into Escherichia coli DH5a (TOYOBO, model number DNA-903). The recombinant clones were identified, and plasmid DNA was isolated and subjected to the DNA sequence analysis. One clone which had the expected nucleic acid sequence was selected for expression work.
For expression of hPDHK1 activity, Escherichia coli strain BL21(DE3) cells (Merck KGaA, model number 69450-4) were transformed with the pET17b vector containing modified hPDHK1 cDNA. The Escherichia coli were grown to an optical density 0.6 ([…]) at 30° C. Protein expression was induced by the addition of 500 μmol/L isopropyl-β-thiogalactopyranoside. The Escherichia coli were cultured at 20° C. for 17-18 hr and harvested by centrifugation.
The harvested Escherichia coli was resuspended in a suspension buffer (20 mmol/L N-(2-hydroxyethyl)piperazine-N′-2-ethanesulfonic acid-sodium hydroxide (HEPES-NaOH), 500 mmol/L sodium chloride, 1% ethylene glycol, and 0.1% polyoxyethylene-polyoxypropylene block copolymer (Pluronic F-68), complete, EDTA-free (pH 8.0)) and disrupted by a microfluidizer M-110H (MIZUHO INDUSTRIAL CO., LTD.) or ultrasonication. The precipitate was removed by centrifugation and the supernatant was added to DDDDK-tagged Protein PURIFICATION GEL (MBL, model number 3329). DDDDK-tagged Protein PURIFICATION GEL was washed with a washing buffer (20 mmol/L HEPES-NaOH, 500 mmol/L sodium chloride, 1% ethylene glycol, 0.1% pluronic F-68 (pH 8.0)) and the bound protein was eluted with elution buffer 1 (20 mmol/L HEPES-NaOH, 100 μg/mL peptide (amino acid sequence DYKDDDDK) (SEQ ID NO: 1), 500 mmol/L sodium chloride, 1% ethylene glycol, 0.1% pluronic F-68 (pH 8.0)).
The eluted fractions containing FLAG-Tagged protein were pooled, concentrated by an ultrafiltration method, added to a gel filtration column (HiLoad 26/60 Superdex 200 (GE Healthcare, model number 17-1070-01)), and eluted with elution buffer 2 (20 mmol/L HEPES-NaOH, 150 mmol/L sodium chloride, 0.5 mmol/L ethylenediaminetetraacetic acid (EDTA), 1% ethylene glycol, 0.1% pluronic F-68 (pH 8.0)). The eluted fractions were pooled and preserved at −80° C.
(§2) 0.025 U/mL PDH (porcine heart PDH complex, Sigma P7032) and 0.5 μg/mL hPDHK1 were mixed in an assay buffer (50 mmol/L 3-morpholinopropanesulfonic acid (pH 7.0), 20 mmol/L dipotassium hydrogen phosphate, 60 mmol/L potassium chloride, 2 mmol/L magnesium chloride, 0.4 mmol/L EDTA, 0.2% poloxamer, 2 mmol/L dithiothreitol), and the mixture was incubated at 4° C. overnight to obtain a PDH/hPDHK1 complex solution. In the assay buffer, 0.025 U/mL PDH was mixed and incubated at 4° C. overnight to prepare a PDH solution.
The test compounds were diluted with dimethyl sulfoxide (DMSO). To measure an inhibitory action of the test compound on the PDHK activity in the PDH/hPDHK1 complex solution, PDH/hPDHK1 complex solution (20 μL), test compound (1.5 μL) and 0.353 μmol/L ATP (diluted with assay buffer) (8.5 μL) were added to a 384 well microplate (Greiner Bio-One 781801) and PDHK reaction was performed at room temperature for 45 min (test compound well). DMSO (1.5 μL) was added to control wells instead of test compound. In addition, DMSO (1.5 μL) was added to blank wells instead of the test compound, and PDH solution was added instead of the PDH/hPDHK1 complex solution. […]

human PDHK2 (hPDHK2) = human PDHK2 (hPDHK2) (Homo sapiens (Human), UniProt Q15119); assay: Inhibitory action of PDHK2 activity in vitro (residual PDH activity after PDHK reaction); format: biochemical; settings: for IC50: PDH/hPDHK2 complex solution, PDHK reaction at room temperature for 45 min, NADH absorbance at 340 nm, read-out: kPDK2 IC50
Procedure: as §1
(Inhibitory Action of PDHK2 Activity)
In the case of human PDHK2 (hPDHK2, NCBI Reference Database Accession number NM_002611.4), modified hPDHK2 cDNA wherein FLAG-Tag sequence was added to the N terminus of hPDHK2 cDNA clone (pReceiver-M01/PDK2-GeneCopoeia) as the base was prepared by PCR and ligated to the NdeI/EcoRI site of pET-17b vector. The recombinant construct was transformed into Escherichia coli DH5a. The recombinant clones were identified, and plasmid DNA was isolated and subjected to the DNA sequence analysis. One clone which had the expected nucleic acid sequence was selected for expression work.
For expression of hPDHK2 activity, Escherichia coli strain BL21(DE3) cells were transformed with the pET17b vector containing modified hPDHK2 cDNA. The Escherichia coli were grown to an optical density 0.6 ([…]) at 30° C. Protein expression was induced by the addition of 500 μmol/L isopropyl-β-thiogalactopyranoside. The Escherichia coli were cultured at 20° C. for 17-18 hr and harvested by centrifugation. The harvested Escherichia coli was resuspended in a suspension buffer (20 mmol/L HEPES-NaOH, 500 mmol/L sodium chloride, 1% ethylene glycol, 0.1% pluronic F-68 (pH 8.0), cOmplete, EDTA-free (pH 8.0)), and disrupted by a microfluidizer. The precipitate was removed by centrifugation and the supernatant was added to DDDDK-tagged Protein PURIFICATION GEL. DDDDK-tagged Protein PURIFICATION GEL was washed with a washing buffer (20 mmol/L HEPES-NaOH, 500 mmol/L sodium chloride, 1% ethylene glycol, 0.1% pluronic F-68 (pH 8.0)) and the bound protein was eluted with elution buffer 1 (20 mmol/L HEPES-NaOH, 100 μg/mL peptide (amino acid sequence DYKDDDDK) (SEQ ID NO: 1), 500 mmol/L sodium chloride, 1% ethylene glycol, 0.1% pluronic F-68 (pH 8.0)). The eluted fractions containing FLAG-Tagged protein were pooled, concentrated by an ultrafiltration method, added to a gel filtration column (HiLoad 26/60 Superdex 200), and eluted with elution buffer 2 (20 mmol/L HEPES-NaOH, 150 mmol/L sodium chloride, 0.5 mmol/L ethylenediaminetetraacetic acid (EDTA), 1% ethylene glycol, 0.1% pluronic F-68 (pH 8.0)). The eluted fractions were pooled and preserved at −80° C.
as §2, with “PDH” for “PDH (porcine heart PDH complex, Sigma P7032)”, “hPDHK2” for “hPDHK1”, “PDH/hPDHK2” for “PDH/hPDHK1”
The test compounds were diluted with DMSO. To measure an inhibitory action of the test compound on the PDHK activity in the PDH/hPDHK2 complex solution, PDH/hPDHK2 complex solution (20 μL), test compound (1.5 μL) and 1.06 μmol/L ATP (diluted with assay buffer) (8.5 μL) were added to a 384 well microplate and PDHK reaction was performed at room temperature for 45 min (test compound well). DMSO (1.5 μL) was added to control wells instead of test compound. In addition, DMSO (1.5 μL) was added to blank wells instead of the test compound, and PDH solution was added instead of the PDH/hPDHK2 complex solution. To measure an inhibitory action of the test compound on the PDHK activity inherent in the PDH solution, a test compound was added and the PDH solution instead of the PDH/hPDHK2 complex solution was added to a blank+test compound well.
Then, 10 μL of substrates (5 mmol/L sodium pyruvate, 5 mmol/L Coenzyme A, 12 mmol/L NAD, 5 mmol/L thiamine pyrophosphate, diluted with assay buffer) were added. The mixture was incubated at room temperature for 90 min, and the residual PDH activity was measured. […]

SMILES | IC50 (human PDHK1 (hPDHK1)) | inhibition at 0.003 µM (human PDHK1 (hPDHK1)) | IC50 (human PDHK2 (hPDHK2)) | hPDHK2 inhibitory rate at the lowest concentration of the test compound (human PDHK2 (hPDHK2); lowest concentration of the test compound in the assay (<3 nmol/L), shown when IC50 value could not be calculated)
C[C@H]1CN(C(=O)c2nn(C)c3cc(C#N)ccc23)Cc2cnc([C@@](C)(O)C(F)(F)F)n21 [Example 5, 1-methyl-3-((S)-5-methyl-3-((R)-1,1,1-trifluoro-2-hydroxypropan-2-yl)-5,6,7,8-tetrahydroimidazo[1,5-a]pyrazine-7-carbonyl)-1H-indazole-6-carbonitrile] | < 3 nM | 55% | 5 nM | –
C[C@H]1CN(C(=O)c2cc3ccccc3o2)Cc2cnc([C@@](C)(O)C(F)(F)F)n21 [Example 13] | 29 nM | – | 36 nM | –
C[C@H]1CN(C(=O)c2ccc(-c3ccc(C#N)cc3)cn2)Cc2cnc([C@@](C)(O)C(F)(F)F)n21 [Example 45] | 9 nM | – | 8 nM | –
C[C@H]1CN(C(=O)c2cc(-c3ccc(Cl)cn3)nn2C)Cc2cnc([C@@](C)(O)C(F)(F)F)n21 [Example 66] | 4 nM | – | 6 nM | –
C[C@H]1CN(C(=O)c2cc(-c3ccc(F)cc3)ncc2F)Cc2cnc([C@@](C)(O)C(F)(F)F)n21 [Example 86] | < 3 nM | 52% | 4 nM | –
C[C@H]1CN(C(=O)c2cnc(-c3ccccc3)nc2)Cc2cnc([C@@](C)(O)C(F)(F)F)n21 [Example 56] | 10 nM | – | 10 nM | –
C[C@H]1CN(C(=O)c2ccn(C3CC3)n2)Cc2onc([C@@](C)(O)C(F)(F)F)c21 [Example 110] | 7 nM | – | 13 nM | –
C[C@H]1CN(C(=O)c2cc(C3CC3)nn2CC(F)(F)F)Cc2cnc([C@@](C)(O)C(F)(F)F)n21 [Example 36] | 4 nM | – | 5 nM | –
C[C@H]1CN(C(=O)C2(C)CN(c3ccc(F)cn3)C2)Cc2cnc([C@@](C)(O)C(F)(F)F)n21 [Example 90] | 66 nM | – | 45 nM | –
C[C@H]1CN(C(=O)c2cc(C3CC3)nn2C2CC2)Cc2cnc([C@@](C)(O)C(F)(F)F)n21 [Example 29] | 7 nM | – | 7 nM | –
C[C@H]1CN(C(=O)c2cc(C3CC3)on2)Cc2cnc([C@@](C)(O)C(F)(F)F)n21 [Example 21] | 13 nM | – | 12 nM | –
C[C@H]1CN(C(=O)c2cc(C3CC3)n(C)n2)Cc2onc([C@@](C)(O)C(F)(F)F)c21 [Example 113] | 4 nM | – | 5 nM | –
C[C@H]1CN(C(=O)c2cc(-c3ccc(C#N)cc3F)nn2C)Cc2cnc([C@@](C)(O)C(F)(F)F)n21 [Example 50] | 4 nM | – | 5 nM | –
C[C@H]1CN(C(=O)c2cc(-c3ccccc3)nn2C)Cc2cnc([C@@](C)(O)C(F)(F)F)n21 [Example 15] | 3 nM | – | 5 nM | –
Cc1nc(-c2ccc(C#N)cc2)oc1C(=O)N1Cc2cnc([C@@](C)(O)C(F)(F)F)n2[C@@H](C)C1 [Example 46] | 5 nM | – | 5 nM | –
C[C@H]1CN(C(=O)c2cncc(-c3ccc(C#N)cc3F)c2)Cc2cnc([C@@](C)(O)C(F)(F)F)n21 [Example 71] | 4 nM | – | 7 nM | –
C[C@H]1CN(C(=O)c2c3c(F)cc(F)cc3nn2C)Cc2cnc([C@@](C)(O)C(F)(F)F)n21 [Example 6] | 11 nM | – | 11 nM | –
C[C@H]1CN(C(=O)c2ccc(F)c(-c3ccc(C#N)cn3)c2)Cc2cnc([C@@](C)(O)C(F)(F)F)n21 [Example 58] | 3 nM | – | 4 nM | –
C[C@H]1CN(C(=O)c2cc3n(n2)CCC3)Cc2onc([C@@](C)(O)C(F)(F)F)c21 [Example 100] | 4 nM | – | 5 nM | –
C[C@H]1CN(C(=O)c2cc(-c3ccc(S(C)(=O)=O)cc3)nn2C)Cc2cnc([C@@](C)(O)C(F)(F)F)n21 [Example 44] | 5 nM | – | 7 nM | –
C[C@H]1CN(C(=O)c2cc(C3CC3)n(CC(F)(F)F)n2)Cc2cnc([C@@](C)(O)C(F)(F)F)n21 [Example 37] | 3 nM | – | 8 nM | –
C[C@H]1CN(C(=O)c2n[nH]c3c2CCC(C)(C)C3)Cc2onc([C@@](C)(O)C(F)(F)F)c21 [Example 103] | < 3 nM | 67% | < 3 nM | 66%
